Experimental data taken from PMC6017631, “The Effect of Combining Natural Terpenes and Antituberculous Agents against Reference and Clinical Mycobacterium tuberculosis Strains” (Molecules : A Journal of Synthetic Chemistry and Natural …, 2018).
Values after ≈ are worked out from the molar mass of the structure shown. Like-named read-outs stand apart in the source and are kept apart here.

How the values were obtained:
M. tuberculosis H37Rv = conditions: H37Rv and some Mtb drug-resistant clinical isolates ref 2, 60, 61, cited from earlier work
[1] = test system: clinical isolate 85/13 (Beijing, SIRE resistant); assay: microbe, parasite or virus in culture; format: cell-based, Mycobacterium tuberculosis
[2] = test system: clinical isolate 126 (INH resistant); assay: microbe, parasite or virus in culture; format: cell-based, Mycobacterium tuberculosis
[3] = test system: clinical isolate 12331 (IRE resistant); assay: microbe, parasite or virus in culture; format: cell-based, Mycobacterium tuberculosis
[4] = compounds tested separately, 85/13
[5] = compounds tested separately, 126
[6] = compounds tested separately, 12331
[7] = Mycobacterium tuberculosis, read-out: MIC for EMB in a Presence of Terpenes
[8] = Mycobacterium tuberculosis, read-out: MIC for INH in a Presence of Terpenes
[9] = Mycobacterium tuberculosis, read-out: MIC for RMP in a Presence of Terpenes

Cc1cc(O)c2c(c1)C(=O)C=CC2=O [7-methyljuglone]
FICI (M. tuberculosis H37Rv; in combination with isoniazid): 0.2 | FICI (M. tuberculosis H37Rv; with rifampicin): 0.5

C=C(C)[C@H]1CC=C(C)CC1 [(R)-limonene]
MIC [1, 4]: 256 µg/mL (≈ 1880 µM) | MIC [2, 5]: 128 µg/mL (≈ 940 µM) | MIC [3, 6]: 128 µg/mL (≈ 940 µM)

CC[C@@H](CO)NCCN[C@@H](CC)CO [EMB, ethambutol, reference compound]
MIC ([1]; Mycobacterium tuberculosis): 16 µg/mL (≈ 78.3 µM) | MIC ([2]; Mycobacterium tuberculosis): 0.25 µg/mL (≈ 1.22 µM) | MIC ([3]; Mycobacterium tuberculosis): 16 µg/mL (≈ 78.3 µM)

NNC(=O)c1ccncc1 [INH, isoniazid, reference compound]
MIC ([1]; Mycobacterium tuberculosis): 16 µg/mL (≈ 117 µM) | MIC ([2]; Mycobacterium tuberculosis): 0.5 µg/mL (≈ 3.65 µM) | MIC ([3]; Mycobacterium tuberculosis): 16 µg/mL (≈ 117 µM)

CO[C@H]1/C=C/O[C@@]2(C)Oc3c(C)c(O)c4c(O)c(c(/C=N/N5CCN(C)CC5)c(O)c4c3C2=O)NC(=O)/C(C)=C\C=C\[C@H](C)[C@H](O)[C@@H](C)[C@@H](O)[C@@H](C)[C@H](OC(C)=O)[C@@H]1C [RMP, rifampicin, reference compound]
MIC ([1]; Mycobacterium tuberculosis): 128 µg/mL (≈ 156 µM) | MIC ([2]; Mycobacterium tuberculosis): 0.25 µg/mL (≈ 0.304 µM) | MIC ([3]; Mycobacterium tuberculosis): 256 µg/mL (≈ 311 µM)

CC(C)=CCC[C@](C)(O)C1CC=C(C)CC1 (stereo partly shown) [bisabolol]
MIC [1, 4]: 128 µg/mL (≈ 576 µM) | MIC [2, 5]: 32 µg/mL (≈ 144 µM) | MIC [3, 6]: 256 µg/mL (≈ 1150 µM)

C=CC(=C)CCC=C(C)C [myrcene]
MIC ([1]; Mycobacterium tuberculosis): > 512 µg/mL | MIC [1, 7]: 16 µg/mL | MIC [1, 8]: 16 µg/mL | MIC [1, 9]: 128 µg/mL | MIC ([2]; Mycobacterium tuberculosis): 256 µg/mL (≈ 1880 µM) | MIC [2, 7]: 0.25 µg/mL | MIC [2, 8]: 0.5 µg/mL | MIC [2, 9]: 0.25 µg/mL | MIC ([3]; Mycobacterium tuberculosis): 512 µg/mL (≈ 3760 µM) | MIC [3, 7]: 16 µg/mL | MIC [3, 8]: 16 µg/mL | MIC [3, 9]: 256 µg/mL

CCCCCCCC/C=C\CCCCCCCC(=O)O [oleic acid]
FICI (M. tuberculosis H37Rv; in combination with isoniazid, rifampicin and ethambutol): 0.09–0.36

C=C1CCC2(C(C)C)CC12 (stereo not shown) [sabinene]
MIC ([1]; Mycobacterium tuberculosis): 512 µg/mL (≈ 3760 µM) | MIC [1, 7]: 16 µg/mL | MIC [1, 8]: 16 µg/mL | MIC [1, 9]: 128 µg/mL | MIC ([2]; Mycobacterium tuberculosis): 128 µg/mL (≈ 940 µM) | MIC [2, 7]: 0.25 µg/mL | MIC [2, 8]: 0.5 µg/mL | MIC [2, 9]: 0.25 µg/mL | MIC ([3]; Mycobacterium tuberculosis): > 512 µg/mL | MIC [3, 7]: 16 µg/mL | MIC [3, 8]: 16 µg/mL | MIC [3, 9]: 256 µg/mL

CC(=O)c1c(O)c(C)c(O)c2c1OC1=CC(=O)C(C(C)=O)C(=O)C12C (stereo not shown) [usnic acid]
FICI (M. tuberculosis H37Rv; with rifampicin): 0.25–0.38

CC1=CCC2CC1C2(C)C (stereo not drawn) [α-pinene]
MIC ([1]; Mycobacterium tuberculosis): 512 µg/mL (≈ 3760 µM) | MIC [1, 7]: 16 µg/mL | MIC [1, 8]: 16 µg/mL | MIC [1, 9]: 128 µg/mL | MIC ([2]; Mycobacterium tuberculosis): 128 µg/mL (≈ 940 µM) | MIC [2, 7]: 0.25 µg/mL | MIC [2, 8]: 0.5 µg/mL | MIC [2, 9]: 0.25 µg/mL | MIC ([3]; Mycobacterium tuberculosis): > 512 µg/mL | MIC [3, 7]: 16 µg/mL | MIC [3, 8]: 16 µg/mL | MIC [3, 9]: 256 µg/mL

C=C[C@]1(C)CC[C@@H](C(=C)C)C[C@H]1C(=C)C [β-elemene]
MIC [1, 4]: >512 µg/mL | MIC [2, 5]: 256 µg/mL (≈ 1250 µM) | MIC [3, 6]: 256 µg/mL (≈ 1250 µM)

(S)-limonene
MIC [1, 4]: >512 µg/mL | MIC [2, 5]: 256 µg/mL | MIC [3, 6]: 512 µg/mL
